Assay results from US12503446B2, “Bromodomain inhibitors” (FORSCHUNGSZENTRUM JÜLICH GMBH, priority 2019, dated 2025).

Tests used:
HEL cells = experiment: Cell cycle analysis (propidium iodide, flow cytometry), HEL; assay type: cell-based; details: compared to PFI-1
Experimental: (§1) The influence of the inhibitors used on the cell cycle was examined by means of propidium iodide staining of the fixed cells. For this purpose, the cells were fixed with 95% ethanol at −20° C., RNA was destroyed by RNase (100 μg/ml) at 37° C. for […], and the DNA was stained by means of propidium iodide (50 μg/ml). Using a flow cytometer (Gallios (Beckman Coulter, Krefeld, Germany)), the cell cycle phases were analysed, and the data were evaluated by means of FlowJo Software (Version 10).
(§2) During the proliferation, the cells go through different stages of the cell cycle in which genomic DNA is replicated, the cell nucleus is broken down and cell division takes place, resulting in two identical cells.

BRD4 = experiment: Thermal shift assay (BromoMELT assay), BRD4; assay type: binding; details: 10 μM, duplicates, versus DMSO control
Experimental: The experiment was conducted in duplicates at a concentration of 10 μM.

Molm-14 cells = experiment: Cell cycle analysis (propidium iodide, flow cytometry), Molm-14; assay type: cell-based; details: compared to PFI-1
Experimental: as §1, §2

binding / specificity for BRD4 (ΔTm, in words) (BRD4): more specific binding of BRD4
Structure (SMILES): CN1Cc2cc(N=[S@@](C)(=O)c3ccccc3)ccc2NC1=O [MF2-S, (S)—N-(3-methyl-2-oxo-1,2,3,4-tetrahydroquinazolin-6-yl)-S-methyl-S-phenylsulfoximine]
subG1 phase (percentage of dead cells), HEL (HEL cells): significantly higher proportions | synthesis phase (S phase) of cell cycle, HEL (HEL cells): more significantly inhibited by MF2-S than by PFI-1 | subG1 phase (percentage of dead cells), Molm-14 (Molm-14 cells): significantly higher proportions | synthesis phase (S phase) of cell cycle, Molm-14 (Molm-14 cells): more significantly inhibited by MF2-S than by PFI-1
